Our source for the Ki values is BindingDB's records for patent US11964990 (Abbvie, 2024).

Experiment [1] addresses Apoptosis regulator Bcl-2 (Homo sapiens, UniProt P10415). The experiment can be described thus: Time Resolved-Fluorescence Resonance Energy Transfer (TR-FRET) Assay. The method, then: (§1) [Bcl-2 protein or Bcl-xL protein], [Probe], [Antibody],Protein Probe nM nM Antibody nMGST- F-Bak 1 100 Tb-anti- 1Bcl- Acetyl-(SEQ GST 2 ID NO: 3)-NH2The samples were then mixed on a shaker for 1 minute and equilibrated for an additional 3 hours at room temperature. For each assay plate, a probe/antibody and protein/antibody/probe mixture were included as a negative and a positive control, respectively. Fluorescence was measured on the Envision (Perkin Elmer) using a 340/35 nm excitation filter and 520/525 (F-Bak) and 495/510 nm (Tb-labeled anti-GST antibody) emission filters. Inhibition constants (Ki) were determined using Wang's equation (Wang FEBS Lett. 1995, 360, 111-114). The TR-FRET assay can be performed in the presence of varying concentrations of human serum (HS) to determine apparent half maximal inhibitory concentration (IC50) after HS protein binding.

Experiment [2] deals with Bcl-2-like protein 1 (Homo sapiens, UniProt Q07817). The description is as above. How it is done:
as §1

pKi: −log10 of the molar value.

Chain of Bcl-2-like protein 1 (Q07817 whole entry): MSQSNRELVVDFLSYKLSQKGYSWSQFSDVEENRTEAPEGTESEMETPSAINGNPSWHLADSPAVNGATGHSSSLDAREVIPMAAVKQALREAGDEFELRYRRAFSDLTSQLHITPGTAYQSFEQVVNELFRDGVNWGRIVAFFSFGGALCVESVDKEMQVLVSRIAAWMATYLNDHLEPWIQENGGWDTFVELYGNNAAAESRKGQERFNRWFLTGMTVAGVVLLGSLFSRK
Chain of Apoptosis regulator Bcl-2 (P10415 whole entry): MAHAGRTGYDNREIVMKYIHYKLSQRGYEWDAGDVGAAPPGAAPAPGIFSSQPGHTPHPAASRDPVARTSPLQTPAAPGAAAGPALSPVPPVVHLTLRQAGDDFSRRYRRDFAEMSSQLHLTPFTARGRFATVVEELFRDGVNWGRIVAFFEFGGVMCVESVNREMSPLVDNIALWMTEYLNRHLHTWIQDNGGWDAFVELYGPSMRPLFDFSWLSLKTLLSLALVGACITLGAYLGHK

The pKi is the Ki on a negative log10 scale, so that one unit is a factor of ten. The low end stands for a large Ki, the high end for a small Ki. In the case of `C[C@@H]1CC[C@H](CNc2ccc(S(=O)(=O)NC(=O)c3ccc(N4CCN5CC6=C(c7ccc(Cl)cc7)CC(C)(C)C[C@H]6OCCCOC[C@@H]5C4)cc3N3CCCOc4nc5[nH]ccc5cc43)cc2[N+](=O)[O-])OC1` [US11964990, Example 21], the pKi in experiment [1] is 9.28; in experiment [2], 7.23.
